Results reported in ChEMBL document CHEMBL4842322, “A naphthalimide-polyamine conjugate preferentially accumulates in hepatic carcinoma metastases as a lysosome-targeted antimetastatic agent” (Eur J Med Chem, 2021).

Legend:
Type in all cases: functional, cell-based
HepG2 = assay: Cytotoxicity against human HepG2 cells assessed as inhibition of cell growth incubated for 48 hrs by MTT assay; details: HepG2, 48 h
Huh-7 = assay: Cytotoxicity against human Huh-7 cells assessed as inhibition of cell growth incubated for 48 hrs by MTT assay; details: Huh-7, 48 h
MDA-MB-231 = assay: Cytotoxicity against human MDA-MB-231 cells assessed as inhibition of cell growth incubated for 48 hrs by MTT assay; details: MDA-MB-231, 48 h
MCF7 = assay: Cytotoxicity against human MCF7 cells assessed as inhibition of cell growth incubated for 48 hrs by MTT assay; details: MCF7, 48 h
A549 [1] = assay: Cytotoxicity against human A549 cells assessed as inhibition of cell growth incubated for 48 hrs by MTT assay; details: A549, 48 h
A549 [2] = assay: Cytotoxicity against cisplatin-resistant human A549 cells assessed as inhibition of cell growth incubated for 48 hrs by MTT assay; details: A549, 48 h

| SMILES | IC50 (HepG2) [µM] | IC50 (Huh-7) [µM] | IC50 (MDA-MB-231) [µM] | IC50 (MCF7) [µM] | IC50 (A549 [1]) [µM] | IC50 (A549 [2]) [µM] |
| --- | --- | --- | --- | --- | --- | --- |
| NCCCCNCCCCN1C(=O)c2cccc3c(NC(=O)CN)ccc(c23)C1=O | > 30 | 22.9 | > 30 | > 30 | > 30 | > 30 |
| NCCCCNCCCCN1C(=O)c2cccc3cc(NC(=O)CN)cc(c23)C1=O | > 30 | 28.7 | > 30 | > 30 | > 30 | > 30 |
| CN(C)CCN1C(=O)c2cccc3cc(NC(=O)CN)cc(c23)C1=O | > 30 | 12.7 | > 30 | > 30 | > 30 | > 30 |
| NCCCCNCCCN1C(=O)c2cccc3cc(NC(=O)CN)cc(c23)C1=O | > 30 | > 30 | > 30 | > 30 | > 30 | > 30 |
| CCCNCCCN1C(=O)c2cccc3cc(NC(=O)CN)cc(c23)C1=O | > 30 | 10.1 | > 30 | > 30 | > 30 | > 30 |
